Counter-ions that a name gives are not always drawn.
Key:
G401 cells = assay: Cancer cell proliferation inhibition (Cell Counting Kit-8), rhabdoid tumor cell line; format: cell-based; conditions: 1000 nM, cultured seven to 11 days; for inhibition at 1 µM: Homo sapiens, G-401, 264 h, read-out: % inhibition rate G401
Procedure, shortened: (§1)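 Cells grown in RPMI1640, McCoy's 5a, L-15 or DMEM with 10% FBS, seeded at 100 to 1,000 cells/well and treated with test substance at 1000 nM for 7 to 11 days. Viability read by CCK-8; % inhibition = {1−(test/control)} × 100.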

MIA-PaCa-2 cells = assay: Cancer cell proliferation inhibition (Cell Counting Kit-8), pancreatic cancer cell line; format: cell-based; conditions: 1000 nM, cultured seven to 11 days; for inhibition at 1 µM: Homo sapiens, MIA PaCa-2, 264 h, read-out: % inhibition rate MIA-Paca2; for % inhibition rate MIA-Paca2: 1 µM
Procedure, shortened: (§2)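 Cells grown in RPMI1640, McCoy's 5a, L-15 or DMEM with 10% fetal bovine serum, seeded at 100 to 1,000 cells per well, then exposed to test compound at 1000 nM for seven to 11 days. Viability read by CCK-8; % inhibition = {1−(test/control)} × 100.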

Lovo cells = assay: Cancer cell proliferation inhibition (Cell Counting Kit-8), colorectal cancer cell line; format: cell-based; conditions: 1000 nM, cultured seven to 11 days; for inhibition at 1 µM: Homo sapiens, LoVo, 264 h, read-out: % inhibition rate LoVo
Procedure, shortened: as §2

NCI-H1299 cells = assay: Cancer cell proliferation inhibition (Cell Counting Kit-8), lung cancer cell line; format: cell-based; conditions: 1000 nM, cultured seven to 11 days; for inhibition at 1 µM: Homo sapiens, NCI-H1299, 264 h, read-out: % inhibition rate NCI-H129 9
Procedure, shortened: as §2

SW-13 cells = assay: Cancer cell proliferation inhibition (Cell Counting Kit-8), adrenal cancer cell line; format: cell-based; conditions: 1000 nM, cultured seven to 11 days; for inhibition at 1 µM: Homo sapiens, SW13, 264 h, read-out: % inhibition rate SW-13; for % inhibition rate SW-13: 1 µM
Procedure, shortened: as §2

EZH1 = EZH1 (Homo sapiens, UniProt Q92800); assay: AlphaLISA enzyme activity inhibition, EZH1; format: biochemical; conditions: for inhibition at 0.005 µM: 5nM test substance
Procedure, shortened: (§3)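 EZH1 or EZH2 was mixed with compound at 5 nM or 10 nM final in 20 mM Tris pH 8.0, 0.1% BSA, 0.5 mM DTT, then histone H3 peptide and SAM were added. After 2 h reaction, AlphaLISA acceptor and donor beads detected methylation; inhibition rate was calculated against DMSO control.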

EZH2 = EZH2 (Homo sapiens, UniProt Q15910); assay: AlphaLISA enzyme activity inhibition, EZH2; format: biochemical
Procedure, shortened: as §3

MKN-45 cells = assay: Cancer cell proliferation inhibition (Cell Counting Kit-8), gastric cancer cell line; format: cell-based; conditions: 1000 nM, cultured seven to 11 days; for inhibition at 1 µM: Homo sapiens, MKN-45, 264 h, read-out: % inhibition rate MKN -45; for % inhibition rate MKN -45: 1 µM
Procedure, shortened: as §1

EZH1, sequence (Q92800 whole entry, species assumed): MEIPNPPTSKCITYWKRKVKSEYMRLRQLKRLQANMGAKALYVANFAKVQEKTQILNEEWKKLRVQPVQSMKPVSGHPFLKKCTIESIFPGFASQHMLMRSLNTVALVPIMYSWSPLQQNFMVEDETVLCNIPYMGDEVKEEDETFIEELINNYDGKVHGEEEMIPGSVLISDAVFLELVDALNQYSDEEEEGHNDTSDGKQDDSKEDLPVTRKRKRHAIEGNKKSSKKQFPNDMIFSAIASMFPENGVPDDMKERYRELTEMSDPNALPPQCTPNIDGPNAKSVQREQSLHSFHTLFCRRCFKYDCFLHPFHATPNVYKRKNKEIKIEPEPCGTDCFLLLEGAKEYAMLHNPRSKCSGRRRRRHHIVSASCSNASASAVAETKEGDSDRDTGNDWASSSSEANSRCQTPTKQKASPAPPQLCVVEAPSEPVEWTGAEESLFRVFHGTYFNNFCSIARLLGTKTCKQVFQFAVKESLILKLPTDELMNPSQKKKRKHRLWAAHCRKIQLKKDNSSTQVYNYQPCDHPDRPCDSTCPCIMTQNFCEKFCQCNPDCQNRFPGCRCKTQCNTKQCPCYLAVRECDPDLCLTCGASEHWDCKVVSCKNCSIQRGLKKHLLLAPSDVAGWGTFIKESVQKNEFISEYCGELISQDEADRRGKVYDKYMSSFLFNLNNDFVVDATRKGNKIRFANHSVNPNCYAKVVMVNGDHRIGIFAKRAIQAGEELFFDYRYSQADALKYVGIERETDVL
EZH1, sequence (O75530 whole entry partner, species assumed): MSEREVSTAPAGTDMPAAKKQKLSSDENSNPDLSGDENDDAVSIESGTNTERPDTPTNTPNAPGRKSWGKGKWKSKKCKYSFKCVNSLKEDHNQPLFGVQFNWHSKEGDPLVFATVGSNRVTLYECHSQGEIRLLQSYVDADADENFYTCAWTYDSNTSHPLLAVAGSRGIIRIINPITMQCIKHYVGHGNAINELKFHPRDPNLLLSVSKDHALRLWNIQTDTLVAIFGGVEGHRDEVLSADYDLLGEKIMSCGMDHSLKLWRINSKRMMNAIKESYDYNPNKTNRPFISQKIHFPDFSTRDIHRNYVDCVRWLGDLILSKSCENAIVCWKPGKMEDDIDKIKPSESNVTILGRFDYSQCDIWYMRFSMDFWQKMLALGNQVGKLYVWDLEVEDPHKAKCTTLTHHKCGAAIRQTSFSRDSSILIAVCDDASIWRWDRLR
EZH1, sequence (Q15022 whole entry partner, species assumed): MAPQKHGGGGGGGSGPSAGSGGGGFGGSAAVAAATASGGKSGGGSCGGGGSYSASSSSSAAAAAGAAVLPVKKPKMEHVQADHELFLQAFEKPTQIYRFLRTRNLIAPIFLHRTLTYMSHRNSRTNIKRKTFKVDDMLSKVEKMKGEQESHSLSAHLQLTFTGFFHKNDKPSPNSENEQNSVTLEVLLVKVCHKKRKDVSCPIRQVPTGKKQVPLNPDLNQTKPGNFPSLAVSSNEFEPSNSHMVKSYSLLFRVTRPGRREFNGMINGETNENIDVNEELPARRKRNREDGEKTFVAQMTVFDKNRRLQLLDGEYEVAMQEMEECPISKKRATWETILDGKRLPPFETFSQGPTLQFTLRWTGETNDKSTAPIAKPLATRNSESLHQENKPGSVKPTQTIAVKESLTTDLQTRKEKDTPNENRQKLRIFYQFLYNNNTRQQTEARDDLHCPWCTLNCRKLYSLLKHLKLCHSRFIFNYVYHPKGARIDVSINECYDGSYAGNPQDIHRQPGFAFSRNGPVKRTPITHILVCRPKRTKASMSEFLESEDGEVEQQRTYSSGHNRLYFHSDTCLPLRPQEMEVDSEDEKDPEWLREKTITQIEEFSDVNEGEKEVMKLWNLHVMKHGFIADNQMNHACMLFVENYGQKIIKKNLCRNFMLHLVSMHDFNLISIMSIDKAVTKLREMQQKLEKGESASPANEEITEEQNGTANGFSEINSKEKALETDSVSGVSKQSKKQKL
EZH2, sequence (Q15910 whole entry, species assumed): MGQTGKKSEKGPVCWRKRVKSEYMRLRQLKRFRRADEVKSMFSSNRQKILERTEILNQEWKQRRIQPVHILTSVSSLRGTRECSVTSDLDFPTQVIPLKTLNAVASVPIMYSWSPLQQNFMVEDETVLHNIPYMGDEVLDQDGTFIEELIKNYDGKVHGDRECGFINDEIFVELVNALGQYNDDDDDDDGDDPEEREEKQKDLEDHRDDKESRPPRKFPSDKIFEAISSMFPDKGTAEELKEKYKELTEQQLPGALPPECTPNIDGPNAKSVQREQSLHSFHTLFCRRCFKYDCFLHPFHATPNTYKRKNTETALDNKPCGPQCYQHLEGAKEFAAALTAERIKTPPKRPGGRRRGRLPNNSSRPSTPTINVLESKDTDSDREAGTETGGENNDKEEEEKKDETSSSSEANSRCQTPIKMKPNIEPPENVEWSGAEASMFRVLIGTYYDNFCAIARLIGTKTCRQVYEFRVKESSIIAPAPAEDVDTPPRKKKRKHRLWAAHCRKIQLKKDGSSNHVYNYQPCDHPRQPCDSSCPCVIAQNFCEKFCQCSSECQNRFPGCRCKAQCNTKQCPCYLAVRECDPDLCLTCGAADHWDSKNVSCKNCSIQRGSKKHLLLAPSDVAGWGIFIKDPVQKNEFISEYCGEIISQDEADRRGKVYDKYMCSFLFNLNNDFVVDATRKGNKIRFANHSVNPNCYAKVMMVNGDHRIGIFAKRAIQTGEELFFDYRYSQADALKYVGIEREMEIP
EZH2, sequence (O75530 whole entry partner, species assumed): as the sequence (O75530 whole entry partner, species assumed) above
EZH2, sequence (Q15022 whole entry partner, species assumed): as the sequence (Q15022 whole entry partner, species assumed) above

SMILES	inhibition at 1 µM (G401 cells) [%]	inhibition at 1 µM (MIA-PaCa-2 cells) [%]	inhibition at 1 µM (Lovo cells) [%]	inhibition at 1 µM (NCI-H1299 cells) [%]	inhibition at 1 µM (SW-13 cells) [%]	inhibition at 0.005 µM (EZH1) [%]	inhibition at 0.01 µM (EZH1; 10nM test substance) [%]	inhibition at 0.005 µM (EZH2; 5nM test substance) [%]	inhibition at 0.01 µM (EZH2; 10nM test substance) [%]	inhibition at 1 µM (MKN-45 cells) [%]	% inhibition rate MIA-Paca2 (MIA-PaCa-2 cells)	% inhibition rate SW-13 (SW-13 cells)	% inhibition rate MKN -45 (MKN-45 cells)	% inhibition rate G401 (G401 cells)	% inhibition rate LoVo (Lovo cells)	% inhibition rate NCI-H129 9 (NCI-H1299 cells)	Enzyme inhibition % EZH1 (EZH1; 10nM test substance, 0.01 µM) [%]	Enzyme inhibition % EZH2 (EZH2; 5nM test substance, 0.005 µM) [%]	Enzyme inhibition % EZH2 (EZH2; 10nM test substance, 0.01 µM) [%]
CCCCN(C)c1ccc(-c2cc(C(=O)NCc3c(SC)cc(C)[nH]c3=O)c(C)c3c2OC(C)(C2CCN(CC(F)(F)F)CC2)O3)cn1 (stereo not shown) [Compound 98, 7-(6-(butyl(methyl)amino)pyridin-3-yl)-2,4-dimethyl-N-((6-methyl-4-(methylthio)-2-oxo-1,2-dihydropyridin-3-yl)methyl)-2-(1-(2,2,2-trifluoroethyl)piperidin-4-yl)benzo[d][1,3]dioxole-5-carboxamide]	30 to 70	≤ 30	≥ 70	≤ 30	≤ 30	30.9	17.6	52.2	48.9	30 to 70									
CCCCN(C)c1ncc(-c2cc(C(=O)NCc3c(SC)cc(C)[nH]c3=O)c(C)c3c2OC(C)(C2CCN(CC(F)(F)F)CC2)O3)cn1 (stereo not shown) [Compound 99]	30 to 70	≤ 30	≥ 70	≤ 30	30 to 70	37.1	42.9	62.4	76.5	30 to 70									
CSc1cc(C)[nH]c(=O)c1CNC(=O)c1cc(-c2ccc(N3C[C@@H](C)O[C@@H](C)C3)nc2)c2c(c1C)OC(C)([C@H]1CC[C@H](N)CC1)O2 (stereo partly drawn) [Compound 100, 2-(trans-4-aminocyclohexyl)-7-(6-((2S,6R)-2,6-dimethylmorpholino)pyridin-3-yl)-2,4-dimethyl-N-((6-methyl-4-(methylthio)-2-oxo-1,2-dihydropyridin-3-yl)methyl)benzo[d][1,3]dioxole-5-carboxamide hydrochloride]	≥ 70	≤ 30	≤ 30	≤ 30	30 to 70	30	68.1	96.3	100	30 to 70									
CSc1cc(C)[nH]c(=O)c1CNC(=O)c1cc(-c2ccc(N3C[C@@H](C)O[C@@H](C)C3)nc2)c2c(c1C)OC(C)([C@H]1CC[C@H](N3CC(O)C3)CC1)O2 (stereo partly drawn) [Compound 101, 7-(6-((2S,6R)-2,6-dimethylmorpholino)pyridin-3-yl)-2-(trans-4-(3-hydroxyazetidin-1-yl)cyclohexyl)-2,4-dimethyl-N-((6-methyl-4-(methylthio)-2-oxo-1,2-dihydropyridin-3-yl)methyl)benzo[d][1,3]dioxole-5-carboxamide]	≥ 70	≤ 30	30 to 70	≤ 30	30 to 70	38.8	78.1	98.7	100	≤ 30									
CSc1cc(C)[nH]c(=O)c1CNC(=O)c1cc(-c2ccc(N3C[C@@H](C)O[C@@H](C)C3)nc2)c2c(c1C)OC(C)([C@H]1CC[C@H](N3CC(OCC(F)F)C3)CC1)O2 (stereo partly drawn) [Compound 103, 2-(trans-4-(3-(2,2-difluoroethoxy)azetidin-1-yl)cyclohexyl)-7-(6-((2S,6R)-2,6-dimethylmorpholino)pyridin-3-yl)-2,4-dimethyl-N-((6-methyl-4-(methylthio)-2-oxo-1,2-dihydropyridin-3-yl)methyl)benzo[d][1,3]dioxole-5-carboxamide]	≥ 70		≥ 70	≤ 30		10.7	20.5	27.1	72.5		+++ (+++: ≥70%)	+++ (+++: ≥70%)	+++ (+++: ≥70%)						
CSc1cc(C)[nH]c(=O)c1CNC(=O)c1cc(-c2ccc(N3C[C@@H](C)O[C@@H](C)C3)nc2)c2c(c1C)OC(C)([C@H]1CC[C@H](N3CC(OCC(F)F)C3)CC1)O2 (stereo partly drawn) [Compound 104, 2-(trans-4-(3-(2,2-difluoroethoxy)azetidin-1-yl)cyclohexyl)-7-(6-((2S,6R)-2,6-dimethylmorpholino)pyridin-3-yl)-2,4-dimethyl-N-((6-methyl-4-(methylthio)-2-oxo-1,2-dihydropyridin-3-yl)methyl)benzo[d][1,3]dioxole-5-carboxamide]											+ (+: ≤30%)	++ (++: more than 30% and less than 70%)	++ (++: more than 30% and less than 70%)	+++ (+++: ≥70%)	+++ (+++: ≥70%)	+ (+: ≤30%)	19.9	37.0	82.6
COC1CN([C@H]2CC[C@H](C3(C)Oc4c(-c5ccc(N6C[C@@H](C)O[C@@H](C)C6)nc5)cc(C(=O)NCc5c(SC)cc(C)[nH]c5=O)c(C)c4O3)CC2)C1 (stereo partly drawn) [Compound 106, 7-(6-((2S,6R)-2,6-dimethylmorpholino)pyridin-3-yl)-2-(trans-4-(3-methoxyazetidin-1-yl)cyclohexyl)-2,4-dimethyl-N-((6-methyl-4-(methylthio)-2-oxo-1,2-dihydropyridin-3-yl)methyl)benzo[d][1,3]dioxole-5-carboxamide]	≥ 70	≤ 30	≥ 70	30 to 70	30 to 70	34.2	69.1	90.6	99.9	≤ 30									
CSc1cc(C)[nH]c(=O)c1CNC(=O)c1cc(-c2ccc(N3C[C@@H](C)O[C@@H](C)C3)nc2)c2c(c1C)OC(C)([C@H]1CC[C@H](N(C)CC(F)F)CC1)O2 (stereo partly shown) [Compound 109]	≥ 70	≤ 30	≥ 70	≤ 30	30 to 70	22	35.2	52.4	91.6	30 to 70									
CSc1cc(C)[nH]c(=O)c1CNC(=O)c1cc(-c2ccc(N3C[C@@H](C)O[C@@H](C)C3)nc2)c2c(c1C)OC(C)([C@H]1CC[C@H](N(C)C(C)C)CC1)O2 (stereo partly drawn) [Compound 110, 7-(6-((2S,6R)-2,6-dimethylmorpholino)pyridin-3-yl)-2-(trans-4-(isopropyl(methyl)amino)cyclohexyl)-2,4-dimethyl-N-((6-methyl-4-(methylthio)-2-oxo-1,2-dihydropyridin-3-yl)methyl)benzo[d][1,3]dioxole-5-carboxamide]	≥ 70	≤ 30	≥ 70	≤ 30	30 to 70	52	91.9	99.8	100	≤ 30									
CCN(C)[C@H]1CC[C@H](C2(C)Oc3c(-c4ccc(N5C[C@@H](C)O[C@@H](C)C5)nc4)cc(C(=O)NCc4c(SC)cc(C)[nH]c4=O)c(C)c3O2)CC1 (stereo partly drawn) [Compound 111, 7-(6-((2S,6R)-2,6-dimethylmorpholino)pyridin-3-yl)-2-(trans-4-(ethyl(methyl)amino)cyclohexyl)-2,4-dimethyl-N-((6-methyl-4-(methylthio)-2-oxo-1,2-dihydropyridin-3-yl)methyl)benzo[d][1,3]dioxole-5-carboxamide]	≥ 70	≤ 30	≥ 70	≤ 30	30 to 70	28.1	62.1	86.7	100	≤ 30									
CSc1cc(C)[nH]c(=O)c1CNC(=O)c1cc(-c2ccc(N3C[C@@H](C)O[C@@H](C)C3)nc2)c2c(c1C)OC(C)([C@H]1CC[C@H](N(C)CCc3ccccc3)CC1)O2 (stereo partly drawn) [Compound 112, 7-(6-((2S,6R)-2,6-dimethylmorpholino)pyridin-3-yl)-2,4-dimethyl-2-(trans-4-(methyl(phenethyl)amino)cyclohexyl)-N-((6-methyl-4-(methylthio)-2-oxo-1,2-dihydropyridin-3-yl)methyl)benzo[d][1,3]dioxole-5-carboxamide]	≥ 70	≤ 30	≥ 70	≤ 30	30 to 70	24.3	40.7	58.5	97	30 to 70									

— patent EP4740948A1 (Dong Wha Pharm. Co., Ltd., priority 2023, dated 2025)
